# According to ChEMBL document CHEMBL4706699, “Novel (R)-6,6a,7,8,9,10-hexahydro-5H-pyrazino[1,2-a][1,n]naphthyridines as potent and selective agonists of the 5-HT receptor” (Bioorg Med Chem Lett, 2021):
# What was measured:
# [1] = molecular target: T1, 5-hydroxytryptamine receptor 2A (Homo sapiens, UniProt P28223); assay: Agonist activity at 5-HT2AR (unknown origin) transfected in human HEK293 cells by IP3 accumulation assay; assay type: cell-based
# [2] = molecular target: T2, 5-hydroxytryptamine receptor 2C (Homo sapiens, UniProt P28335); assay: Agonist activity at 5-HT2CR (unknown origin) transfected in human HEK293 cells by IP3 accumulation assay; assay type: functional, cell-based
# T2 sequence (P28335 whole entry): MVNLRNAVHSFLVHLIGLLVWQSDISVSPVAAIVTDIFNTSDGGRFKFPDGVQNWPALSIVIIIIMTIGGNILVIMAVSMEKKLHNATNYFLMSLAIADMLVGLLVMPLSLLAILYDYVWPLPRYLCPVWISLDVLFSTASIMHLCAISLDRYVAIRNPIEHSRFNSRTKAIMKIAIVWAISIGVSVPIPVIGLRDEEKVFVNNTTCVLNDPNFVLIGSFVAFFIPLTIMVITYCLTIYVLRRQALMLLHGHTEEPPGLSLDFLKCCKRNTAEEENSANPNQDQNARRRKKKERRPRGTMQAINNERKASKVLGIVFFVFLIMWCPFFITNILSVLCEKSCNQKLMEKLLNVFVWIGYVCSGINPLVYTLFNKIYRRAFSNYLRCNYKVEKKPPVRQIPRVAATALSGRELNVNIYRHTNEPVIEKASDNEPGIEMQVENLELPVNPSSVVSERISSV
# [3] = molecular target: T3, 5-hydroxytryptamine receptor 2B (Homo sapiens, UniProt P41595); assay: Agonist activity at 5-HT2BR (unknown origin) transfected in human HEK293 cells by IP3 accumulation assay; assay type: cell-based
# T3 sequence (P41595 whole entry): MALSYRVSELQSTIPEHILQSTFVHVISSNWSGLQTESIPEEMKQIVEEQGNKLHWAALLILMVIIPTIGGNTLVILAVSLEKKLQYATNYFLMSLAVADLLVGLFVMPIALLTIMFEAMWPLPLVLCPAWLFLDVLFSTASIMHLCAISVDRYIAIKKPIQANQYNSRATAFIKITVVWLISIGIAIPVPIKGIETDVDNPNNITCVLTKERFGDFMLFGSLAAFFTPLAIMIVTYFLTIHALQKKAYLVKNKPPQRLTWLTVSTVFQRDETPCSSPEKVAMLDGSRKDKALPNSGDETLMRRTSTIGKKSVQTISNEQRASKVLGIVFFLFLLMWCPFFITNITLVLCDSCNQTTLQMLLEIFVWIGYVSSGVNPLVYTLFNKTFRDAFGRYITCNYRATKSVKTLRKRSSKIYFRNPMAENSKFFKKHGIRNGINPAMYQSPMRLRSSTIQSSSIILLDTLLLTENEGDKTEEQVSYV
# [4] = molecular target: T4, 5-hydroxytryptamine receptor 2C (Homo sapiens) (UniProt P28335); assay: Agonist activity at 5-HT2CR (unknown origin) transfected in human HEK293 cells at 10 uM by IP3 accumulation assay relative to control; assay type: functional, cell-based; conditions: filed as agonist
# T4 sequence (whole entry): T2 sequence (P28335 whole entry)
# [5] = molecular target: 5-HT2B receptor (Homo sapiens, UniProt P41595); assay: Agonist activity at 5-HT2BR (unknown origin) transfected in human HEK293 cells at 10 uM by IP3 accumulation assay relative to control; assay type: cell-based; conditions: HEK293 cells transfected with 5-HT2BR
# Chain of 5-HT2B receptor (P41595 whole entry): as above
# [6] = Metabolic stability in rat liver microsomes assessed as parent compound remaining at 1 uM incubated for 45 mins; assay type: ADME, Microsome; conditions: read-out: Stabilty
# [7] = Metabolic stability in human liver microsomes assessed as parent compound remaining at 1 uM incubated for 45 mins; assay type: ADME, Microsome; conditions: read-out: Stabilty
# [8] = molecular target: T1, 5-hydroxytryptamine receptor 2A; assay: Displacement of [3H]-DOI from recombinant human 5HT2AR transfected in human HEK293 cells incubated for 45 mins by radioligand binding assay; assay type: cell-based
# [9] = molecular target: T3, 5-hydroxytryptamine receptor 2B; assay: Displacement of [3H]-[…] from recombinant human 5HT2BR transfected in human HEK293 cells incubated for 45 mins by radioligand binding assay; assay type: cell-based
# [10] = molecular target: T2, 5-hydroxytryptamine receptor 2C; assay: Displacement of [125I]-DOI from recombinant human 5HT2CR transfected in human HEK293 cells incubated for 45 mins by radioligand binding assay; assay type: cell-based
# [11] = Oral bioavailability in Sprague-Dawley rat; assay type: ADME, organism-based; conditions: in vivo
# [12] = (§1) In vivo agonist activity at 5HT2CR in po dosed Sprague-Dawley rat assessed as reduction in food intake measured at 1 hr; assay type: functional
# [13] = system: Rattus norvegicus; assay: as §1; assay type: functional
# [14] = Half life in po dosed Sprague-Dawley rat; assay type: ADME, organism-based; conditions: in vivo
# [15] = molecular target: 5-HT2A receptor (Homo sapiens, UniProt P28223); assay: Agonist activity at 5-HT2AR (unknown origin) transfected in human HEK293 cells at 10 uM by IP3 accumulation assay relative to control; assay type: cell-based; conditions: HEK293 cells transfected with 5-HT2AR
# Chain of 5-HT2A receptor (P28223 whole entry): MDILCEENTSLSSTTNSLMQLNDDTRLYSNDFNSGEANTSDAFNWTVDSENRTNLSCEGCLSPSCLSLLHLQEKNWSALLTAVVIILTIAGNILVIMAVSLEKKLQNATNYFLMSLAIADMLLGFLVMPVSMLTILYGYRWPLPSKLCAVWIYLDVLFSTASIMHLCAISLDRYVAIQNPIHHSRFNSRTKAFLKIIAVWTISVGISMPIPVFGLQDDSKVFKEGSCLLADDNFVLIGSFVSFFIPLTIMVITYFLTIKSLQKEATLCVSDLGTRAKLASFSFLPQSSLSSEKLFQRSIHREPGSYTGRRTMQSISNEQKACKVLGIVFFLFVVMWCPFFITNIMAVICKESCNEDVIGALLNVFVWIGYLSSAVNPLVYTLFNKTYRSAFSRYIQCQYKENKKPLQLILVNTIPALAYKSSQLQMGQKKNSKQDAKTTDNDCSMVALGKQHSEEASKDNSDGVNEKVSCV
# [16] = Ratio of unbound drug level in po dosed Sprague-Dawley rat brain to plasma measured after 2 hrs; assay type: ADME, organism-based; conditions: read-out: K(p,uu,brain)
# T1 sequence (P28223 whole entry): as above
Compound,EC50 [1],EC50 [2],EC50 [3],Emax [4],Emax at 10 µM [5],"remaining at 0.75 h, 1 µM [6]","remaining at 0.75 h, 1 µM [7]",Ki [8],Ki [9],Ki [10],bioavailability [11],ED50 [12],Activity [13],half-life [14],Emax at 10 µM [15],Kp uu at 2 h [16]
c1cc2c(cn1)N1CCNC[C@H]1CC2,> 10000 nM,316 nM,794 nM,98%,28%,,,,,,,,,,,
CCCc1cncc2c1CC[C@@H]1CNCCN21,,,,106%,,14%,5%,39.8 nM,,,,,,,,
COCc1ccnc2c1CC[C@@H]1CNCCN21,,,,109%,38%,,,,,,,,,,,
c1cc2c(cn1)CC[C@@H]1CNCCN21,> 10000 nM,> 10000 nM,> 10000 nM,,,,,,,,,,,,,
c1ccc(Cc2cncc3c2CC[C@@H]2CNCCN32)cc1,,0.631 nM,> 10000 nM,110%,,,,,251 nM,0.501 nM,,,,,,
FC(F)(F)CCc1ccnc2c1CC[C@@H]1CNCCN21,,,,97%,31%,80%,100%,,,,54%,0.7 mg/kg,Dose-dependent effect,2.9 h,134%,1.3
Clc1ccnc2c1CC[C@@H]1CNCCN21,1260 nM,5.01 nM,50.1 nM,99%,62%,,,,,,,,,,90%,
c1cc(C2CC2)c2c(n1)N1CCNC[C@H]1CC2,398 nM,6.31 nM,15.8 nM,99%,34%,,,,,,,,,,117%,
Cc1ccnc2c1CC[C@@H]1CNCCN21,,,,102%,52%,,,,,,,,,,,
c1cc2c(c(CC3CCC3)n1)CC[C@@H]1CNCCN21,> 10000 nM,> 1000 nM,> 10000 nM,,,,,,,,,,,,,
CCCc1cccc2c1CC[C@@H]1CNCCN21,158 nM,0.2 nM,100 nM,107%,82%,38%,13%,5.01 nM,12.6 nM,0.316 nM,,,,,74%,
c1ccc(Cc2ccnc3c2CC[C@@H]2CNCCN32)cc1,50.1 nM,0.126 nM,,107%,25%,,,1.26 nM,,0.251 nM,,,,,114%,
FC(F)(F)CCc1cccc2c1CC[C@@H]1CNCCN21,1000 nM,3.16 nM,3160 nM,95%,48%,23%,81%,20 nM,100 nM,2 nM,,,,,114%,
c1cc(CC2CCC2)c2c(n1)N1CCNC[C@H]1CC2,,,,108%,17%,67%,78%,,,,,,,,,
CC(C)Cc1ccnc2c1CC[C@@H]1CNCCN21,,0.398 nM,316 nM,102%,22%,24%,14%,,31.6 nM,0.631 nM,,,,,,
CCCc1ccnc2c1CC[C@@H]1CNCCN21,,0.0631 nM,,99%,54%,27%,29%,6.31 nM,,0.158 nM,,,,,,
c1cnc2c(c1)CC[C@@H]1CNCCN21,> 10000 nM,100 nM,63.1 nM,92%,19%,,,,,,,,,,,
